For data set [1], the system named is Myzus persicae. Briefly: Myzus persicae - spray test (bell pepper plants). It is filed as in vivo. The note with it: 20 ppm, after 6 days. Here is the method:
Myzus persicae—Spray Test Solvent: 14 parts by weight of dimethylformamide Emulsifier: alkylaryl polyglycol ether […] To produce further test concentrations, the formulation is diluted with emulsifier-containing water. If the addition of ammonium salts or/and penetrants is required, these are each added in a concentration of 1000 ppm to the formulation solution. Bell pepper plants (Capsicum annuum) severely infested with the green peach aphid (Myzus persicae) are treated by spraying with the active compound formulation in the desired concentration.

Data set [2] is described as follows: log P determination by HPLC on reversed-phase (C18) columns, OECD Guideline 117. It is filed as physicochemical. The gist of the method: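 Reversed-phase C18 HPLC per OECD 117, LC-MS with a linear 10% to 95% acetonitrile gradient. Acidic method at pH 2.7 with 0.1% formic acid; neutral method at pH 7.8 with 0.001 M ammonium hydrogencarbonate.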
Data set [3] has as its system Myzus persicae. Kind of data set: Myzus persicae - oral test. The note with it: after 5 days; for efficacy in % (aphids killed): 20 ppm; for pest or weed control at 20 ppm: Myzus persicae, 120 h, read-out: efficacy in % (aphids killed). The data set is classed as in vivo. Here is the method: Solvent: 100 parts by weight of acetone
Subsequently, the plates are sealed with parafilm, which a mixed population of green peach aphids (Myzus persicae) within a second microtitre plate is able to puncture and imbibe the solution through it.
After 5 days, the efficacy in % is determined. 100% means that all the aphids have been killed; 0% means that no aphids have been killed.

In data set [4] the test system is Myzus persicae. Briefly: Myzus persicae - spray test (Chinese cabbage leaf discs). The data set is classed as in vivo. The conditions noted are these: 500 g/ha, after 6 days. The gist of the method:
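Leaf discs of Chinese cabbage carrying all aphid stages sprayed with compound formulated in acetone/DMF and water with 1000 ppm alkylaryl polyglycol ether emulsifier. Kill rate scored after 6 days as % efficacy (100% all aphids dead, 0% none).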

A further data set relates to Tetranychus urticae. Briefly: Tetranychus urticae - spray test, OP-resistant. The conditions noted are these: 500 g/ha, after 6 days, bean leaf discs. It is filed as in vivo. On the procedure:
Tetranychus Urticae—Spray Test, OP-Resistant
Solvent: 78.0 parts by weight of acetone • • 1.5 parts by weight of dimethylformamide
Emulsifier: alkylaryl polyglycol ether
To produce a suitable preparation of active compound, 1 part by weight of active compound is dissolved using the specified parts by weight of solvent and made up with water containing an emulsifier concentration of 1000 ppm until the desired concentration is attained. To produce further test concentrations, the formulation is diluted with emulsifier-containing water.
Discs of bean leaves (Phaseolus vulgaris) infested with all stages of the greenhouse red spider mite (Tetranychus urticae) are sprayed with an active compound formulation of the desired concentration.
After 6 days, the efficacy in % is determined. 100% means that all the spider mites have been killed; 0% means that no spider mites have been killed.

The test system of another data set is Meloidogyne incognita. Briefly: Meloidogyne incognita test. It is filed as in vivo. The conditions noted are these: 20 ppm, after 14 days, lettuce in sand. On the procedure:
Meloidogyne Incognita Test
Solvent: 125.0 parts by weight of acetone
To produce a suitable active compound formulation, 1 part by weight of active compound is mixed with the stated amount of solvent and the concentrate is diluted with water to the desired concentration.
Vessels are filled with sand, active compound solution, an egg/larvae suspension of the southern root-knot nematode (Meloidogyne incognita) and lettuce seeds. The lettuce seeds germinate and the plants develop. The galls develop on the roots.
After 14 days, the nematicidal efficacy in % is determined by the formation of galls. 100% means that no galls were found; 0% means that the number of galls on the treated plants corresponds to the untreated control.

[5] abbreviates: HPLC, acidic range pH 2.7, 0.1% aqueous formic acid/acetonitrile.
Where [6] appears, read: HPLC, neutral range pH 7.8, 0.001 molar aqueous ammonium hydrogencarbonate/acetonitrile.

Like-named read-outs stand apart in the source and are kept apart here.

Take `CN(C(=O)c1cnc(-c2ccc(F)c(COC(=O)C3CC3)c2)n1C)c1cccnc1` [Example 46]: in the data set on Myzus persicae [1], the “kill in % (aphids killed)” value is 95%. The logp-acidic in data set [2] (pH 2.7) was determined as 0.73. The same compound gave a logp-neutral in data set [2] (pH 7.8) of 1.35. Moreover, the “efficacy in % (aphids killed)” value in the data set on Myzus persicae [3] is recorded as 100%.

As for `CN(C(=O)c1cnc(-c2cccc([S+]([O-])C(F)(F)F)c2)n1C)c1cccnc1` (stereo not shown) [Example 49], the “kill in % (aphids killed)” value in the data set with Myzus persicae [1] is on record as 100%. The logp-acidic in data set [2] (pH 2.7) was 1.28. The compound further came in with a logp-neutral in data set [2] (pH 7.8) of 1.62. Moreover, the “efficacy in % (aphids killed)” value in the data set with Myzus persicae [3] was found to be 100%.

For the compound `CN(C(=O)c1cnc(-c2ccc(F)c(C(F)(F)F)c2)n1C)c1cccnc1` [Example 50], the “kill in % (aphids killed)” value in the data set with Myzus persicae [1] was 100%. The chromatographic logP was determined as 1.72 in data set [2] (reversed-phase (C18) HPLC column, pH 2.7, HPLC, acidic range pH 2.7, 0.1% aqueous formic acid/acetonitrile, read-out: logp-acidic) and 2.08 in data set [2] (reversed-phase (C18) HPLC column, pH 7.8, HPLC, neutral range pH 7.8, 0.001 molar aqueous ammonium hydrogencarbonate/acetonitrile, read-out: logp-neutral). For the same compound, in the data set on Myzus persicae [3], the pest or weed control at 20 ppm was determined as 100%.

Consider `CN(C(=O)c1cnc(-c2cc(Cl)cc(C(F)(F)F)c2)n1C)c1cccnc1` [Example 51], for which the “kill in % (aphids killed)” value with Myzus persicae [1] is on record as 100%. Moreover, the logp-acidic in data set [2] (pH 2.7) is reported as 2.17. Further, in data set [2] (pH 7.8), the logp-neutral was 2.43. Further, in the data set on Myzus persicae [3], the “efficacy in % (aphids killed)” value was found to be 100%.

On to `CN(C(=O)c1cnc(-c2cccc(C(F)(F)F)c2)n1C)c1cccnc1` [Example 52], for which the logp-acidic in data set [2] (pH 2.7) is recorded as 1.64. In addition, the logp-neutral in data set [2] (pH 7.8) was 1.99. Besides, the “efficacy in % (aphids killed)” value in the data set on Myzus persicae [4] and in the data set on Myzus persicae [3] was 100% each time. The “efficacy in % (spider mites killed)” value in the data set on Tetranychus urticae is recorded as 90%.

`CN(C(=O)c1cnc(-c2cccc(C(F)(F)C(F)(F)F)c2)n1C)c1cccnc1` [Example 57]: in data set [2] (pH 2.7), the logp-acidic was determined as 2.09. In addition, the logp-neutral in data set [2] (pH 7.8) is reported as 2.40. The “efficacy in % (aphids killed)” value with Myzus persicae [4] and in the data set on Myzus persicae [3] was 100% in each case. For the same compound, the “efficacy in % (spider mites killed)” value with Tetranychus urticae was 90%.

Consider `CN(C(=O)c1cnc(-c2cc3ccccc3o2)n1C)c1cccnc1` [Example 70], for which the “kill in % (aphids killed)” value in the data set on Myzus persicae [1] was found to be 95%. Further, the chromatographic logP turned out to be 1.63 in data set [2] (HPLC, acidic range pH 2.7, 0.1% aqueous formic acid/acetonitrile, read-out: logp-acidic) and 1.87 in data set [2] (HPLC, neutral range pH 7.8, 0.001 molar aqueous ammonium hydrogencarbonate/acetonitrile, read-out: logp-neutral). In the data set on Myzus persicae [3], the pest or weed control at 20 ppm worked out at 100%.

Regarding `CCOC(=O)c1cc(-c2ncc(C(=O)N(C)c3cccnc3)n2C)on1` [Example 72], the logp-acidic in data set [2] (pH 2.7) is 1.42. Moreover, the logp-neutral in data set [2] (pH 7.8) turned out to be 1.51. Moreover, the “efficacy in % (spider mites killed)” value with Tetranychus urticae came to 90%. Also, the “efficacy in % (aphids killed)” value with Myzus persicae [3] amounted to 100%.

As for `CCN(C(=O)c1cnc(-c2ccccn2)n1C)c1cccnc1` [Example 77], the “kill in % (aphids killed)” value in the data set with Myzus persicae [1] was found to be 100%. Besides, the logp-acidic in data set [2] (setting [5]) is on record as 0.97. Further, in data set [2] (setting [6]), the logp-neutral was determined as 1.39. Further, the “efficacy in % (aphids killed)” value in the data set on Myzus persicae [4] and in the data set with Myzus persicae [3] was 100% each time.

In the case of `CN(C(=O)c1cnc(-c2cccc3c2OCO3)n1C)c1cccnc1` [Example 83], in data set [2] (setting [5]), the logp-acidic is 0.9. In addition, the logp-neutral in data set [2] (setting [6]) was 1.44. Also, the “efficacy in % (aphids killed)” value was 90% in the data set with Myzus persicae [4] and 100% in the data set on Myzus persicae [3]. Further, the “nematicidal efficacy in % (formation of galls)” value in the data set with Meloidogyne incognita was found to be 100%.

Compound `CC(C)Oc1ccc(-c2ncc(C(=O)N(C)c3cccnc3)n2C)cc1C#N` [Example 105] displayed a logp-acidic in data set [2] (pH 2.7) of 1.55. Moreover, the logp-neutral in data set [2] (pH 7.8) is recorded as 1.87. For the same compound, the figures for the “efficacy in % (aphids killed)” value in the data set with Myzus persicae [4] and in the data set on Myzus persicae [3] were 90% and 100%, respectively. Moreover, in the data set on Tetranychus urticae, the “efficacy in % (spider mites killed)” value is 100%.

The record behind these values is US10807968B2, “Substituted 2-(het)arylimidazolylcarboxyamides as pesticides” (Bayer CropScience Aktiengesellschaft, priority 2016, dated 2020).
